Activity calls are given as the source filed them.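 How the source made its calls: active means fitted curve reaches 200% activation at or below the highest valid dose tested for that compound; inconclusive means flat fit between 30 and 70% activation, or unreliable fit; inactive means the rest.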

Drawing on PubChem BioAssay AID743319 (Broad Institute, 2014), this text covers AC200 and activation for 16 molecules.

The first assay deals with Endoplasmic reticulum aminopeptidase 2 (Homo sapiens) (UniProt Q6P179). The assay is described as follows: enhanced ERAP2 Arg-AMC hydrolysis – biochemical, fluorescence plate reader, cherry-picked samples, selectivity assay for selective ERAP1 modulator project, dose response (AID 743319). As to conditions: recombinant ERAP2, Arg-AMC cleavage fluorescence, 1 h.
Endoplasmic reticulum aminopeptidase 2 (Homo sapiens), sequence (Q6P179 whole entry, looked up): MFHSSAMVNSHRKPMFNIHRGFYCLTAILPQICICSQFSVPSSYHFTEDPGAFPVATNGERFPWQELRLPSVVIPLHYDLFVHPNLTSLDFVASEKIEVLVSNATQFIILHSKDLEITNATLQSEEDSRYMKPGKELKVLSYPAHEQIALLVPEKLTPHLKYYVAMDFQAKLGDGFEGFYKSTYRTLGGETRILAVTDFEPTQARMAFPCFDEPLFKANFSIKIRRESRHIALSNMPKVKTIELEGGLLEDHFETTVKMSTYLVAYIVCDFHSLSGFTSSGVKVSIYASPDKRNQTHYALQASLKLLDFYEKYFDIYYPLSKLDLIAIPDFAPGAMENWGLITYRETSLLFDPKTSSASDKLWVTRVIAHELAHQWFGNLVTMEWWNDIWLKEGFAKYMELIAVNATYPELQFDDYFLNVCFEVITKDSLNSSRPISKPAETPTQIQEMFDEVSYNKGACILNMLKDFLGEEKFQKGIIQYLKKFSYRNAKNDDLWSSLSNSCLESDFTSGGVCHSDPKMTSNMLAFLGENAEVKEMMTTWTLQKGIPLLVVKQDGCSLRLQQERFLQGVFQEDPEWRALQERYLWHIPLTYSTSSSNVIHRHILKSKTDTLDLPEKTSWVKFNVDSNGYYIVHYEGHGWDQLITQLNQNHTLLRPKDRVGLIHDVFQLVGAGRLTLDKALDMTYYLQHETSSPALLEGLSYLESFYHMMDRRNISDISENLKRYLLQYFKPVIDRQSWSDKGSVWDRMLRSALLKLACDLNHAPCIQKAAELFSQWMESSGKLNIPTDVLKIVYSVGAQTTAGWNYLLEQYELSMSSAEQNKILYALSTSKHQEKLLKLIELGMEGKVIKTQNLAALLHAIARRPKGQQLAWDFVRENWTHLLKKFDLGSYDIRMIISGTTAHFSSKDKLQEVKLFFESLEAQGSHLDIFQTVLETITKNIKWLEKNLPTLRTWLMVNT
In the case of `Cc1cc(=O)oc2c(CN3CCCCC3)c(O)ccc12`, the AC200 is 1920 nM.

On to `Cc1cc(=O)oc2cc(NS(=O)(=O)c3ccc(F)cc3)ccc12`, for which the AC200 was 2110 nM.

In the case of `CCN1[C@@H]2c3ccc(/C=C/c4ccccc4)c(=O)n3C[C@H]1[C@H](CO)[C@H]2C(=O)N1CCOCC1`, the AC200 is 3520 nM.

As for `COc1ccc(C2=NN(c3ccc(C(=O)O)cc3)C(c3ccc(OC)c(OC)c3)C2)cc1` (stereo unspecified), the AC200 was 1580 nM.

`Cc1c(CC(=O)N2CCN(C(=O)C3COc4ccccc4O3)CC2)c(=O)oc2cc(O)c(Cl)cc12` (stereo unspecified): the AC200 was 1520 nM.

Turning to `O=c1ccc2cc(OC3O[C@H](CO)[C@@H](O)[C@H](O)[C@H]3O)c(O)cc2o1` (stereo partly specified), the AC200 was 857 nM.

Still in this assay, the particulars now being: recombinant ERAP2, Arg-AMC cleavage fluorescence, 1 h; at 2.6 µM (top of the series).
Consider `C[C@@H]1CCCCO[C@@H](CN(C)C(=O)CCC(F)(F)F)[C@@H](C)CN([C@@H](C)CO)C(=O)c2cc(NS(=O)(=O)c3ccccc3)ccc2O1`, for which the activation is 14.4% (inactive).

Staying with this assay, now noted: recombinant ERAP2, Arg-AMC cleavage fluorescence, 1 h; at 8 µM (top of the series).
As to `CCCN(C)C[C@@H]1OCCCC[C@@H](C)Oc2ccc(NS(=O)(=O)c3ccc(OC)cc3)cc2C(=O)N([C@H](C)CO)C[C@@H]1C`, the activation was 15.1% (inactive).

Staying with this assay, now noted: recombinant ERAP2, Arg-AMC cleavage fluorescence, 1 h; at 11 µM (top of the series).
`N#Cc1c(N2CCNCC2)nc(-c2ccco2)c2c1CCCC2`: the activation is 31.3% (inactive).

As for `Cc1noc(C)c1S(=O)(=O)Nc1ccc2c(c1)C(=O)N([C@H](C)CO)C[C@@H](C)[C@@H](CN(C)CC1CCCCC1)OCCCC[C@@H](C)O2`, the activation was 1.44% (inactive).

With `C[C@H](CO)N1C[C@H](C)[C@H](CN(C)CC2CCCCC2)Oc2c(NC(=O)Nc3ccc(C(F)(F)F)cc3)cccc2C1=O`, the activation is 11.4% (inactive).

For `COc1ccc(NC(=O)Nc2ccc3c(c2)C(=O)N([C@H](C)CO)C[C@@H](C)[C@@H](CN(C)Cc2ccc(C(=O)O)cc2)OCCCC[C@@H](C)O3)cc1`, the activation is 2.96% (inactive).

In the case of `C[C@@H]1CCCCO[C@@H](CN(C)S(C)(=O)=O)[C@@H](C)CN([C@@H](C)CO)C(=O)c2cc(NS(=O)(=O)c3ccc(Cl)cc3)ccc2O1`, the activation was 9.01% (inactive).

As to `COc1ccc(CN(C)C[C@H]2OCCCC[C@@H](C)Oc3ccc(NS(=O)(=O)c4cccs4)cc3C(=O)N([C@H](C)CO)C[C@H]2C)cc1`, the activation was 3.67% (inactive).

For the molecule `C[C@@H]1CN([C@H](C)CO)C(=O)c2cccc(NC(=O)Nc3ccccc3)c2O[C@@H]1CN(C)Cc1ccc(C(=O)O)cc1`, the activation is 23.3% (inactive).

Take `Cc1cc(=O)oc2c(CN3CCN(C)CC3)c(O)c(Cl)cc12`: the activation was 12% (inactive).
